How the values were obtained:
[1] = target: T1, NLuc-CAMKK2 (kinase domain) in HEK293 cells (Homo sapiens, UniProt Q96RR4); experiment: CAMKK2 NanoBRET in-cell target engagement assay; assay type: cell-based; settings: HEK293 cells transiently transfected with NLuc-CAMKK2
T1 construct: this assay utilizes a nanoluciferase (NL) fused to the kinase domain of CAMKK2; expressed in transfected cells; host or cells: HEK293
Description: CAMKK2 NanoBRET assay: To quantify the cellular activity of these inhibitors we developed a CAMKK2 NanoBRET target engagement assay [51, 52]. Briefly this assay utilizes a nanoluciferase (NL) fused to the kinase domain of CAMKK2. This NL kinase fusion is then transiently transfected into HEK293 cells and after 24 h, tracer is added to the cells. When the tracer and the NL-CAMKK2 fusion come into proximity they create a BRET signal that can be competed in a dose-dependent manner by the addition of cell-penetrant CAMKK2 inhibitors.
To evaluate this, we developed a NanoBRET in-cell target engagement assay. For this assay, the CAMKK2 kinase domain fused with a Nanoluciferase (NLuc) tag is transiently transfected into HEK293 cells. After 24 h, a heterobifunctional molecule that consists of an inhibitor that binds to CAMKK2 linked to a BODIPY dye is added to the cells. When the inhibitor–dye hybrid binds to the kinase, the proximity to the NLuc fused to CAMKK2 creates a BRET signal. This signal can then be competed away in a dose-dependent fashion with free inhibitor.

IRAK1 [2] = target: T2, IRAK1 (Homo sapiens, UniProt P51617); experiment: KINOMEscan 1 μM, IRAK1; assay type: binding; settings: 1000 nM; Entrez IRAK1; read-out: Percent Control
T2 construct: purchased Eurofins DiscoverX KINOMEscan
Description: (§1) Supplement cells-12-00287-s001.zip/File S2. KinomeScan data for the CAMKK2 probe and negative control.xlsx, sheet "SGC-CAMKK2-1" | column: Percent Control

MKNK1 = target: T3, MKNK1 (Homo sapiens, UniProt Q9BUB5); experiment: KINOMEscan 1 μM, MKNK1; assay type: binding; settings: 1000 nM; Entrez MKNK1; read-out: Percent Control
T3 construct: purchased Eurofins DiscoverX KINOMEscan
Description: as §1

CDKL5 = target: T4, CDKL5 (Homo sapiens, UniProt O76039); experiment: KINOMEscan 1 μM, CDKL5; assay type: binding; settings: 1000 nM; Entrez CDKL5; read-out: Percent Control
T4 construct: purchased Eurofins DiscoverX KINOMEscan
Description: as §1

PIK3CA(E545K) = target: T5, PIK3CA(E545K) (Homo sapiens, UniProt P42336, E545K); experiment: KINOMEscan 1 μM, PIK3CA(E545K); assay type: binding; settings: 1000 nM; Entrez PIK3CA; read-out: Percent Control
T5 construct: purchased Eurofins DiscoverX KINOMEscan
Description: as §1

NEK10 = target: T6, NEK10 (Homo sapiens, UniProt Q6ZWH5); experiment: KINOMEscan 1 μM, NEK10; assay type: binding; settings: 1000 nM; Entrez NEK10; read-out: Percent Control
T6 construct: purchased Eurofins DiscoverX KINOMEscan
Description: as §1

YSK1 = target: T7, YSK1 (Homo sapiens, UniProt O00506); experiment: DiscoverX KINOMEscan binding assay at 1 μM, YSK1; settings: YSK1 (STK25); Compound Concentration 1000 nM; read-out: Percent Control
T7 construct: purchased Eurofins DiscoverX KINOMEscan
Description: as §1

BRSK2 = target: T8, BRSK2 (Homo sapiens, UniProt Q8IWQ3); experiment: KINOMEscan 1 μM, BRSK2; assay type: binding; settings: 1000 nM; Entrez BRSK2; read-out: Percent Control
T8 construct: purchased Eurofins DiscoverX KINOMEscan
Description: as §1

LYN = target: T9, LYN (Homo sapiens, UniProt P07948); experiment: KINOMEscan 1 μM, LYN; assay type: binding; settings: 1000 nM; Entrez LYN; read-out: Percent Control
T9 construct: purchased Eurofins DiscoverX KINOMEscan
Description: as §1

IRAK4 = target: T10, IRAK4 (Homo sapiens, UniProt Q9NWZ3); experiment: KINOMEscan 1 μM, IRAK4; assay type: binding; settings: 1000 nM; Entrez IRAK4; read-out: Percent Control
T10 construct: purchased Eurofins DiscoverX KINOMEscan
Description: as §1

CDK9 = target: T11, CDK9 (Homo sapiens, UniProt P50750); experiment: KINOMEscan 1 μM, CDK9; assay type: binding; settings: 1000 nM; Entrez CDK9; read-out: Percent Control
T11 construct: purchased Eurofins DiscoverX KINOMEscan
Description: as §1

[3] = target: T12, ABL1(H396P)-phosphorylated (Homo sapiens, UniProt P00519, H396P); experiment: KINOMEscan 1 μM, ABL1(H396P)-phosphorylated; assay type: binding; settings: 1000 nM; Entrez ABL1; read-out: Percent Control
T12 construct: purchased Eurofins DiscoverX KINOMEscan
Description: as §1

VRK2 = target: T13, VRK2 (Homo sapiens, UniProt Q86Y07); experiment: DiscoverX KINOMEscan binding assay at 1 μM, VRK2; settings: Compound Concentration 1000 nM, read-out: Percent Control
T13 construct: purchased Eurofins DiscoverX KINOMEscan
Description: as §1

RIOK3 = target: T14, RIOK3 (Homo sapiens, UniProt O14730); experiment: KINOMEscan 1 μM, RIOK3; assay type: binding; settings: 1000 nM; Entrez RIOK3; read-out: Percent Control
T14 construct: purchased Eurofins DiscoverX KINOMEscan
Description: as §1

MAK = target: T15, MAK (Homo sapiens, UniProt P20794); experiment: KINOMEscan 1 μM, MAK; assay type: binding; settings: 1000 nM; Entrez MAK; read-out: Percent Control
T15 construct: purchased Eurofins DiscoverX KINOMEscan
Description: as §1

LATS1 = target: T16, LATS1 (Homo sapiens, UniProt O95835); experiment: KINOMEscan 1 μM, LATS1; assay type: binding; settings: 1000 nM; Entrez LATS1; read-out: Percent Control
T16 construct: purchased Eurofins DiscoverX KINOMEscan
Description: as §1

LZK = target: T17, LZK (Homo sapiens, UniProt O43283); experiment: KINOMEscan 1 μM, LZK; assay type: binding; settings: 1000 nM; Entrez MAP3K13; read-out: Percent Control
T17 construct: purchased Eurofins DiscoverX KINOMEscan
Description: as §1

SgK110 = target: T18, SgK110 (Homo sapiens, UniProt P0C264); experiment: KINOMEscan 1 μM, SgK110; assay type: binding; settings: 1000 nM; Entrez SgK110; read-out: Percent Control
T18 construct: purchased Eurofins DiscoverX KINOMEscan
Description: as §1

TLK1 = target: T19, TLK1 (Homo sapiens, UniProt Q9UKI8); experiment: KINOMEscan 1 μM, TLK1; assay type: binding; settings: 1000 nM; Entrez TLK1; read-out: Percent Control
T19 construct: purchased Eurofins DiscoverX KINOMEscan
Description: as §1

NIM1 = target: T20, NIM1 (Homo sapiens, UniProt Q8IY84); experiment: KINOMEscan 1 μM, NIM1; assay type: binding; settings: 1000 nM; Entrez MGC42105; read-out: Percent Control
T20 construct: purchased Eurofins DiscoverX KINOMEscan
Description: as §1

FGFR4 = target: T21, FGFR4 (Homo sapiens, UniProt P22455); experiment: KINOMEscan binding assay at 1 μM, FGFR4; settings: Compound Concentration 1000 nM; read-out: Percent Control
T21 construct: purchased Eurofins DiscoverX KINOMEscan
Description: (§2) Supplement cells-12-00287-s001.zip/File S2. KinomeScan data for the CAMKK2 probe and negative control.xlsx, sheet "SGC-CAMKK2-1N" | column: Percent Control

AURKB = target: T22, AURKB (Homo sapiens, UniProt Q96GD4); experiment: KINOMEscan at 1 μM, AURKB; assay type: binding; settings: 1000 nM, read-out: Percent Control
T22 construct: purchased Eurofins DiscoverX KINOMEscan
Description: as §2

ERK5 = target: T23, ERK5 (Homo sapiens, UniProt Q13164); experiment: KINOMEscan at 1 μM, ERK5; assay type: binding; settings: 1000 nM, read-out: Percent Control
T23 construct: purchased Eurofins DiscoverX KINOMEscan
Description: as §2

CHEK1 = target: T24, CHEK1 (Homo sapiens, UniProt O14757); experiment: KINOMEscan at 1 μM, CHEK1; assay type: binding; settings: 1000 nM, read-out: Percent Control
T24 construct: purchased Eurofins DiscoverX KINOMEscan
Description: as §2

BUB1 = target: T25, BUB1 (Homo sapiens, UniProt O43683); experiment: KINOMEscan at 1 μM, BUB1; assay type: binding; settings: 1000 nM, read-out: Percent Control
T25 construct: purchased Eurofins DiscoverX KINOMEscan
Description: as §2

MLK1 = target: T26, MLK1 (Homo sapiens, UniProt P80192); experiment: KINOMEscan at 1 μM, MLK1; assay type: binding; settings: 1000 nM, read-out: Percent Control
T26 construct: purchased Eurofins DiscoverX KINOMEscan
Description: as §2

EPHB3 = target: T27, EPHB3 (Homo sapiens, UniProt P54753); experiment: KINOMEscan at 1 μM, EPHB3; assay type: binding; settings: 1000 nM, read-out: Percent Control
T27 construct: purchased Eurofins DiscoverX KINOMEscan
Description: as §2

ROCK2 = target: T28, ROCK2 (Homo sapiens, UniProt O75116); experiment: KINOMEscan at 1 μM, ROCK2; assay type: binding; settings: 1000 nM, read-out: Percent Control
T28 construct: purchased Eurofins DiscoverX KINOMEscan
Description: as §2

ACVR1B = target: T29, ACVR1B (Homo sapiens, UniProt P36896); experiment: KINOMEscan at 1 μM, ACVR1B; assay type: binding; settings: 1000 nM, read-out: Percent Control
T29 construct: purchased Eurofins DiscoverX KINOMEscan
Description: as §2

IRAK1 [4] = target: T2, IRAK1; experiment: KINOMEscan at 1 μM, IRAK1; assay type: binding; settings: 1000 nM, read-out: Percent Control
Description: as §2

MYO3A = target: T30, MYO3A (Homo sapiens, UniProt Q8NEV4); experiment: KINOMEscan at 1 μM, MYO3A; assay type: binding; settings: 1000 nM, read-out: Percent Control
T30 construct: purchased Eurofins DiscoverX KINOMEscan
Description: as §2

ABL1-phosphorylated = target: T31, ABL1-phosphorylated (Homo sapiens, UniProt P00519); experiment: KINOMEscan at 1 μM, ABL1-phosphorylated; assay type: binding; settings: 1000 nM, read-out: Percent Control
T31 construct: purchased Eurofins DiscoverX KINOMEscan
Description: as §2

T2 sequence (P51617 whole entry): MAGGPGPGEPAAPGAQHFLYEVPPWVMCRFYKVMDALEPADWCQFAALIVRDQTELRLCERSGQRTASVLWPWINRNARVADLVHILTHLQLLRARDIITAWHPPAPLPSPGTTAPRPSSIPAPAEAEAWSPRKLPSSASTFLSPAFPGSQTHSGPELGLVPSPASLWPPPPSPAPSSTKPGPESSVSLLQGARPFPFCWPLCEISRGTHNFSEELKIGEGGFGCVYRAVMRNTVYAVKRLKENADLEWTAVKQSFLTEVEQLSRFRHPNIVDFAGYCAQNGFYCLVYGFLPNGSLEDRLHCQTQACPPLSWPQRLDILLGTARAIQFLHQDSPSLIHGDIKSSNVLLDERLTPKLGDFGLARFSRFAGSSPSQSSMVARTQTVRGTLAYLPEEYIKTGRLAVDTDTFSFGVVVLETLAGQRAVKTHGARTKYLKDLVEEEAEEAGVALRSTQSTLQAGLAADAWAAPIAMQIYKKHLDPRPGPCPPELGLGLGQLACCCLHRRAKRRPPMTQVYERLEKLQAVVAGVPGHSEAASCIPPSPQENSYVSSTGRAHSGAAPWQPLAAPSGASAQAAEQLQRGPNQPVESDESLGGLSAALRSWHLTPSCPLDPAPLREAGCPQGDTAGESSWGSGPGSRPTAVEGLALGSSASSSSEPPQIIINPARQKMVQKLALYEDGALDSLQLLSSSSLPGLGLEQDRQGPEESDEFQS
T21 sequence (P22455 22-802): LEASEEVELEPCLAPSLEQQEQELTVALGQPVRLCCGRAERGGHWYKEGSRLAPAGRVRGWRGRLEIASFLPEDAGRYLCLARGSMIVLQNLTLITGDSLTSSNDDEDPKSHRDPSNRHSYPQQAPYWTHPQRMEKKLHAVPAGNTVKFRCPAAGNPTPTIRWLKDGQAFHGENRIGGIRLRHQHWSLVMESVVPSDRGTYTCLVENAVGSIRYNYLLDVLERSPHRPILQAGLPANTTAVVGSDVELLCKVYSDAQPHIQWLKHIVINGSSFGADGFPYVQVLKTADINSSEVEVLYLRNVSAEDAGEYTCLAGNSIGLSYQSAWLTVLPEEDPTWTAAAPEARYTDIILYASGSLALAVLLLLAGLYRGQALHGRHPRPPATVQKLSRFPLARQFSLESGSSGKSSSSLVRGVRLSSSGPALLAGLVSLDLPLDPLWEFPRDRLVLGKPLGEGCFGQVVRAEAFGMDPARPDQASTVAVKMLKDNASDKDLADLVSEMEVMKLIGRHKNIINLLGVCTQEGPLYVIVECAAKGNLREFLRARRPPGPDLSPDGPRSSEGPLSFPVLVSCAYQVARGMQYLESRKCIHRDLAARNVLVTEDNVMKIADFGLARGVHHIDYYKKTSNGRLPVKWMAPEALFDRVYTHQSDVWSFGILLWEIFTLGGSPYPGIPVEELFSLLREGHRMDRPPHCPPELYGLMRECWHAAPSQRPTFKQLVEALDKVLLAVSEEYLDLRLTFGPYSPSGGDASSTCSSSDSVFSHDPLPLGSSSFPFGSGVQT
T18 sequence (P0C264 whole entry): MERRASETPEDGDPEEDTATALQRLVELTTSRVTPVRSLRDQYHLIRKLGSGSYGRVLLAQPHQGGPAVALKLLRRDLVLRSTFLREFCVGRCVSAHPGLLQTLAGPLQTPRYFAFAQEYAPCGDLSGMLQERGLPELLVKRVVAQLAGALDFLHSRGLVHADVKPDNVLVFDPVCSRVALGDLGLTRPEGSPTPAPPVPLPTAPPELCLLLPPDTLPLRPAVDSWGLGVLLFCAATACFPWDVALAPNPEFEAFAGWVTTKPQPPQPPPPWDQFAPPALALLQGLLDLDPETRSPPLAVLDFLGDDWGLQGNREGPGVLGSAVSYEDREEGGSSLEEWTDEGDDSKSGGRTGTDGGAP
T8 sequence (Q8IWQ3 whole entry): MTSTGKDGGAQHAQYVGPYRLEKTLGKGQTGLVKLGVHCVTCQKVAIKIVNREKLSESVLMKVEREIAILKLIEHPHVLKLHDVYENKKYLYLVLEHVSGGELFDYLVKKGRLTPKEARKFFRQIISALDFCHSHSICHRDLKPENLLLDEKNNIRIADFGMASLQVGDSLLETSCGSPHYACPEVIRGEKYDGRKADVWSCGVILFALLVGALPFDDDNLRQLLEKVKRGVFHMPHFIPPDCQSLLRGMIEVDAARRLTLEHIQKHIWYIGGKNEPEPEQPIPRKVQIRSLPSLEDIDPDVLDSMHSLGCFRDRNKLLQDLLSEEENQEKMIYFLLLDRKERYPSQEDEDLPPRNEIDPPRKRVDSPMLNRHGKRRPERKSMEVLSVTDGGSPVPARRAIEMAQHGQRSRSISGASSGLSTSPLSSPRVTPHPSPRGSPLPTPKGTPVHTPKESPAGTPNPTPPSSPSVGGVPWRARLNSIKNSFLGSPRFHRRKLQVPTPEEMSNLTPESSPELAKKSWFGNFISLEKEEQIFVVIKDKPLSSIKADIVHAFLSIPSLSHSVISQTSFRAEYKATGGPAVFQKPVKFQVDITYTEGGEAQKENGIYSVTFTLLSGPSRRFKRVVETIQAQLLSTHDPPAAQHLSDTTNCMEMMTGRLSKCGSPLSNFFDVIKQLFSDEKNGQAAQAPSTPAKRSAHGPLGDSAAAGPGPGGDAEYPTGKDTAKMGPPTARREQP
T16 sequence (O95835 whole entry): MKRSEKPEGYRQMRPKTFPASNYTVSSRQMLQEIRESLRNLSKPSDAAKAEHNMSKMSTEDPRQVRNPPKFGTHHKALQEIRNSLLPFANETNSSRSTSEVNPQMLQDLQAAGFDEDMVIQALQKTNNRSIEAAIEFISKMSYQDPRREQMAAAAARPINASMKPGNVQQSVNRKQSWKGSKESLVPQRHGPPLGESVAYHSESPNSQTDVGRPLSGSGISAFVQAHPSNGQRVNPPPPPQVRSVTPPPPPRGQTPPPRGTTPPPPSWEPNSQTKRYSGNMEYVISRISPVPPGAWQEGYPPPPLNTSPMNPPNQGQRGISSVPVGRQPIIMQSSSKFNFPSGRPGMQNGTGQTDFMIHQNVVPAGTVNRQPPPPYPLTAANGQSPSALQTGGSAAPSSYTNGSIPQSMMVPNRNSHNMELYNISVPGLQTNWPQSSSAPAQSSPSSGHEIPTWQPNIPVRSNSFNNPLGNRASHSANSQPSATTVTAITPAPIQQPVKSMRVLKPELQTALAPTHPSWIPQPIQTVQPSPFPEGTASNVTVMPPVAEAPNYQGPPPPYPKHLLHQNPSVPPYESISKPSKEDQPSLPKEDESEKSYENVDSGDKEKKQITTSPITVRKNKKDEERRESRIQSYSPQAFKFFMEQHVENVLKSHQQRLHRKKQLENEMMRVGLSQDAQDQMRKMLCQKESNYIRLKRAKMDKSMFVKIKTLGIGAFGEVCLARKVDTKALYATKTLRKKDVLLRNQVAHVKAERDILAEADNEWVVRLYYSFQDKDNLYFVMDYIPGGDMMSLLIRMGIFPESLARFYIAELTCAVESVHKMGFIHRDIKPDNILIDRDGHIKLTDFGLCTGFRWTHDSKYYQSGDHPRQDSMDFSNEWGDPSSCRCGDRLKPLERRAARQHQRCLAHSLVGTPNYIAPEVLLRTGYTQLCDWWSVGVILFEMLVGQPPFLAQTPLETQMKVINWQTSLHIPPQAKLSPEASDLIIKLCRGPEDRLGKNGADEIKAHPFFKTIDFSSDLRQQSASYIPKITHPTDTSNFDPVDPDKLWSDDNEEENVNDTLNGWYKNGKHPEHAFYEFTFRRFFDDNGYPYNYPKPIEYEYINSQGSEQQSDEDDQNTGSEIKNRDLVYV
T24 sequence (O14757 whole entry): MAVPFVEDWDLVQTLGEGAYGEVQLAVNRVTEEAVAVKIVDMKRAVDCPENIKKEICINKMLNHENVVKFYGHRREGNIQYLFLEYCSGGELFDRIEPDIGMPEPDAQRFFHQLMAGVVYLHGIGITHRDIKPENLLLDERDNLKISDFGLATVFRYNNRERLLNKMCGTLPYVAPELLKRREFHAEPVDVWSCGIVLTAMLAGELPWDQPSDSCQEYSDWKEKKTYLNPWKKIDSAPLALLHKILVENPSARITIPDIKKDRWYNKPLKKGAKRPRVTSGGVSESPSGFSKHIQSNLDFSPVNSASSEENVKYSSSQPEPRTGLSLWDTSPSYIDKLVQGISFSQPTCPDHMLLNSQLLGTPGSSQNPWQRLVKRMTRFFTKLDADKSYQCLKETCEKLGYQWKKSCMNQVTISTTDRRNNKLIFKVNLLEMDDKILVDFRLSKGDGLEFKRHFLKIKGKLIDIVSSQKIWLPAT
T23 sequence (Q13164 whole entry): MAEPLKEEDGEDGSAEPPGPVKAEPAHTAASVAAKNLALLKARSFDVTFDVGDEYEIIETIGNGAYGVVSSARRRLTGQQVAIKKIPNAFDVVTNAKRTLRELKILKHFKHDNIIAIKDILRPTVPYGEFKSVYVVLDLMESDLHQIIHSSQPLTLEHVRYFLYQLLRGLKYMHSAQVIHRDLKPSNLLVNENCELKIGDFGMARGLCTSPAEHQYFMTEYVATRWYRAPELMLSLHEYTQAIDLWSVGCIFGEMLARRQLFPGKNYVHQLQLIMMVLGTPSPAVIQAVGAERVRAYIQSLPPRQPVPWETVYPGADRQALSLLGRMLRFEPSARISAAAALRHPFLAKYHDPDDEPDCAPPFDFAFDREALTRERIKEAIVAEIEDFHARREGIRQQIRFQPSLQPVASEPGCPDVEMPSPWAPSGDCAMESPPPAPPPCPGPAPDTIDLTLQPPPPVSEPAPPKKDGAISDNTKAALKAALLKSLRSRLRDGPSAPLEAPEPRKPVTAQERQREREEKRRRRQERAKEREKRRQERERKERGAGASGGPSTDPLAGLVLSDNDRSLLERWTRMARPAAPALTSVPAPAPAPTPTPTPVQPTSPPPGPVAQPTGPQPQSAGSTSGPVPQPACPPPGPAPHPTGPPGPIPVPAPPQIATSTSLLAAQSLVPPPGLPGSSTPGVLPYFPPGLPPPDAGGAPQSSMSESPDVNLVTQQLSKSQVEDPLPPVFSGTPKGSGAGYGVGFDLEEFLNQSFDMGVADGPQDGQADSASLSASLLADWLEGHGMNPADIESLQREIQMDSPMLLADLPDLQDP

Cc1cccc(-c2cnc3occ(-c4ccc(C(=O)O)c(C5CCCC5)c4)c3c2)c1 [Compound 5]
IC50 [1]: 270 nM

Cc1cccc(-c2cnc3occ(-c4ccc(C(=O)O)c(C5CCCC5)c4)c3c2)c1 [SGC-CAMKK2-1 (YL-36)]
remaining binding at 1 µM (IRAK1 [2]): 100% | remaining binding at 1 µM (MKNK1): 100% | remaining binding at 1 µM (CDKL5): 100% | remaining binding at 1 µM (PIK3CA(E545K)): 94% | remaining binding at 1 µM (NEK10): 88% | remaining binding at 1 µM (YSK1): 100% | remaining binding at 1 µM (BRSK2): 100% | remaining binding at 1 µM (LYN): 100% | remaining binding at 1 µM (IRAK4): 100% | remaining binding at 1 µM (CDK9): 93% | remaining binding at 1 µM [3]: 77% | remaining binding at 1 µM (VRK2): 100% | remaining binding at 1 µM (RIOK3): 75% | remaining binding at 1 µM (MAK): 78% | remaining binding at 1 µM (LATS1): 100% | remaining binding at 1 µM (LZK): 100% | remaining binding at 1 µM (SgK110): 57% | remaining binding at 1 µM (TLK1): 92% | remaining binding at 1 µM (NIM1): 100%

O=C(O)c1ccc(-c2coc3ncc(-c4ccccc4)cc23)cc1Cl [SGC-CAMKK2-1N (UNC-YL-83)]
remaining binding at 1 µM (FGFR4): 100% | remaining binding at 1 µM (AURKB): 62% | remaining binding at 1 µM (ERK5): 81% | remaining binding at 1 µM (CHEK1): 91% | remaining binding at 1 µM (BUB1): 79% | remaining binding at 1 µM (MLK1): 82% | remaining binding at 1 µM (EPHB3): 53% | remaining binding at 1 µM (ROCK2): 70% | remaining binding at 1 µM (ACVR1B): 100% | remaining binding at 1 µM (IRAK1 [4]): 68% | remaining binding at 1 µM (MYO3A): 72% | remaining binding at 1 µM (ABL1-phosphorylated): 69%

— PMC9856672, “SGC-CAMKK2-1: A Chemical Probe for CAMKK2” (Cells, 2023)
